# Laboratory results taken from patent US20220257595A1, “MACITENTAN FOR USE IN TREATING PORTOPULMONARY HYPERTENSION” (ACTELION PHARMACEUTICALS LTD, priority 2019, published 2022).
# System: patients with PoPH
# Assay: PORTICO safety: treatment-emergent AEs, SAEs, AESIs, deaths, discontinuations
# Format: in vivo
# Description: For the evaluation of treatment-emergent safety endpoints in the DB phase, the observation period for each individual subject started at the time of the first administration of macitentan or placebo and ended with the start of OL treatment or 30 days after DB treatment discontinuation (whichever occurred first). The safety variables listed below apply to the DB treatment-emergent period and the macitentan treatment-emergent period. The DB treatment-emergent period was defined as the period from the DB treatment start date up to the EOT-DB+30 days or to the EOT-DB for patients entering OL. The macitentan treatment-emergent period was defined as the period from the first intake of macitentan up to end of macitentan treatment (EOMT)+30 days. EOMT was defined as EOT-DB (for patient who received macitentan only in the DB period) or EOT-OL when applicable. For patients entering OLE, the EOMT is EOT-OL. • Treatment-emergent AEs • Treatment-emergent deaths • Treatment-emergent serious adverse events (SAEs) • AEs leading to premature discontinuation of study treatment • Occurrence of post-baseline LFT (ALT and/or AST) abnormalities, classified as: • ≥3×ULN; • ≥5×ULN; • ≥8×ULN; • ≥3×ULN and <5×ULN; • […] and <8×ULN. • Occurrence of post-baseline ALT and/or AST abnormality 3×ULN and concomitant (i.e., at the same time) total bilirubin ≥2×ULN • Occurrence of post-baseline ALT and/or AST abnormality ≥3×ULN and concomitant (i.e., at the same time) total bilirubin ≥2×ULN and increased as compared to baseline • Occurrence of hemoglobin abnormalities, classified as: • ≤80 g/L, • >80 and ≤100 g/L, • decrease from baseline ≥20 g/L and <50 g/L, • decrease from baseline ≥50 g/L, • <100 g/L and concurrent (i.e., at the same time) decrease from baseline ≥20 g/L. • Other treatment-emergent marked laboratory abnormalities • Change from baseline/macitentan baseline to EOT-DB/EOMT in vital signs • Change from baseline/macitentan baseline to EOT-DB/EOMT in laboratory variables • Change from baseline/macitentan baseline to EOT-DB/EOMT in Child-Pugh classification • Change from baseline/macitentan baseline to EOT-DB/EOMT in MELD score
# (i) Adverse events: All AEs occurring after study start (i.e., signing of informed consent) and up to 30 days after study treatment discontinuation were required to be recorded. AEs still ongoing more than 30 days after study treatment discontinuation were required to be followed up until they were no longer considered clinically relevant.
# (ii) Serious adverse events, including associated with study design or protocol-mandated procedures: During the screening period, all SAEs occurring after study start (i.e., signing of informed consent) were required to be recorded (whether considered associated or not associated to study design or study-mandated procedures). All SAEs, regardless of investigator-attributed causal relationship, occurring during the treatment period up to the end of the 30-day follow up period, were required to be reported. SAEs still ongoing at the EOS visit were required to be followed up until resolution or stabilization, or until the event outcome was provided, e.g., death. New SAEs occurring after the 30-day follow-up period were required to be reported within 24 hours.
# In addition, the following adverse events of special interest (AESIs) were analyzed: • “Edema and fluid retention”
# Any treatment-emergent AE with PT listed in the Standardised MedDRA Query (SMQ) “Haemodynamic oedema, effusions and fluid overload (SMQ)” or with PT equal to “Pulmonary congestion” defined in the latest available MedDRA version, with the exception of PTs containing “site”. • “Anemia”
# [1] = DB phase, Safety set, 10 mg, N = 43
# [2] = DB phase, macitentan group (6 patients)
# [3] = DB phase, macitentan group, 7 patients
# [4] = OL phase, Macitentan treated set, N = 84
# [5] = macitentan DB + OL phase, Macitentan treated set, N = 84
smiles,measurement,setting,value
"CCCNS(=O)(=O)Nc1ncnc(OCCOc2ncc(Br)cn2)c1-c1ccc(Br)cc1 [macitentan, N-[5-(4-Bromophenyl)-6-[2-[(5-bromo-2-pyrimidinyl)oxy]ethoxy]-4-pyrimidinyl]-N′-propylsulfamide]",AEs that occurred more frequently than in the placebo group,DB phase,"peripheral edema/peripheral swelling, bronchitis and decreased hemoglobin/anemia"
same,Deaths,DB phase,no deaths
same,"AE leading to premature discontinuation of study treatment, Alveolitis",[1],1 (2.3) n (%)
same,"AE leading to premature discontinuation of study treatment, Anaemia",[1],1 (2.3) n (%)
same,"AE leading to premature discontinuation of study treatment, Hypersensitivity",[1],1 (2.3) n (%)
same,"AE leading to premature discontinuation of study treatment, Pulmonary arterial hypertension",[1],1 (2.3) n (%)
same,"AE of special interest Anemia, Pancytopenia",[1],0 n (%)
same,"AE of special interest Hepatic disorders, Blood bilirubin increased",[1],0 n (%)
same,"AE of special interest Hepatic disorders, Gamma-glutamyltransferase increased",[1],0 n (%)
same,Subjects with at least one AE,[1],36 (83.7) n (%)
same,Subjects with at least one AE leading to study drug discontinuation,[1],4 (9.3) n (%)
same,Subjects with at least one Drug-Related AE,[1],19 (44.2) n (%)
same,Subjects with at least one Drug-Related serious AE,[1],5 (11.6) n (%)
same,Subjects with at least one Fatal serious AE,[1],0 n (%)
same,Subjects with at least one Serious AE,[1],9 (20.9) n (%)
same,Subjects with at least one Severe AE,[1],7 (16.3) n (%)
same,"Treatment-emergent AE, Abdominal pain",[1],2 (4.7) n (%)
same,"Treatment-emergent AE, Acute kidney injury",[1],2 (4.7) n (%)
same,"Treatment-emergent AE, Back pain",[1],2 (4.7) n (%)
same,"Treatment-emergent AE, Bronchitis",[1],4 (9.3) n (%)
same,"Treatment-emergent AE, Cough",[1],0 n (%)
same,"Treatment-emergent AE, Diarrhoea",[1],1 (2.3) n (%)
same,"Treatment-emergent AE, Dizziness",[1],2 (4.7) n (%)
same,"Treatment-emergent AE, Dry mouth",[1],1 (2.3) n (%)
same,"Treatment-emergent AE, Dyspnoea",[1],1 (2.3) n (%)
same,"Treatment-emergent AE, Fall",[1],2 (4.7) n (%)
same,"Treatment-emergent AE, Foot fracture",[1],1 (2.3) n (%)
same,"Treatment-emergent AE, Headache",[1],7 (16.3) n (%)
same,"Treatment-emergent AE, Hypokalaemia",[1],2 (4.7) n (%)
same,"Treatment-emergent AE, Hypotension",[1],2 (4.7) n (%)
same,"Treatment-emergent AE, Muscle spasms",[1],0 n (%)
same,"Treatment-emergent AE, Nausea",[1],1 (2.3) n (%)
same,"Treatment-emergent AE, Pain in extremity",[1],2 (4.7) n (%)
same,"Treatment-emergent AE, Presyncope",[1],2 (4.7) n (%)
same,"Treatment-emergent AE, Rhinitis",[1],2 (4.7) n (%)
same,"Treatment-emergent AE, Right ventricular failure",[1],3 (7.0) n (%)
same,"Treatment-emergent AE, Tachycardia",[1],2 (4.7) n (%)
same,"Treatment-emergent AE, Urinary tract infection",[1],2 (4.7) n (%)
same,"Treatment-emergent AE, Viral upper respiratory tract infection",[1],2 (4.7) n (%)
same,"Treatment-emergent SAE, Acute kidney injury",[1],1 (2.3) n (%)
same,"Treatment-emergent SAE, Alveolitis",[1],1 (2.3) n (%)
same,"Treatment-emergent SAE, Aneurysm repair",[1],0 n (%)
same,"Treatment-emergent SAE, Ascites",[1],1 (2.3) n (%)
same,"Treatment-emergent SAE, Asthma",[1],1 (2.3) n (%)
same,"Treatment-emergent SAE, Atrial fibrillation",[1],1 (2.3) n (%)
same,"Treatment-emergent SAE, Fluid overload",[1],1 (2.3) n (%)
same,"Treatment-emergent SAE, Haemoptysis",[1],1 (2.3) n (%)
same,"Treatment-emergent SAE, Hepatic encephalopathy",[1],1 (2.3) n (%)
same,"Treatment-emergent SAE, Hepatocellular carcinoma",[1],1 (2.3) n (%)
same,"Treatment-emergent SAE, Hypersensitivity",[1],1 (2.3) n (%)
same,"Treatment-emergent SAE, Ileus",[1],1 (2.3) n (%)
same,"Treatment-emergent SAE, Left ventricular failure",[1],1 (2.3) n (%)
same,"Treatment-emergent SAE, Localised infection",[1],0 n (%)
same,"Treatment-emergent SAE, Localised oedema",[1],1 (2.3) n (%)
same,"Treatment-emergent SAE, Lung infection",[1],1 (2.3) n (%)
same,"Treatment-emergent SAE, Oedema peripheral",[1],1 (2.3) n (%)
same,"Treatment-emergent SAE, Presyncope",[1],1 (2.3) n (%)
same,"Treatment-emergent SAE, Pulmonary arterial hypertension",[1],1 (2.3) n (%)
same,"Treatment-emergent SAE, Pulmonary toxicity",[1],1 (2.3) n (%)
same,"Treatment-emergent SAE, Right ventricular failure",[1],2 (4.7) n (%)
same,"Treatment-emergent SAE, Syncope",[1],1 (2.3) n (%)
same,"Treatment-emergent SAE, Troponin I increased",[1],1 (2.3) n (%)
same,"Treatment-emergent SAE, Urosepsis",[1],1 (2.3) n (%)
same,"Treatment-emergent SAE, Vascular procedure complication",[1],0 n (%)
same,Anemia AE cases leading to discontinuation of study treatment,"DB phase, macitentan group",1 case
same,"Edema/fluid retention SAEs (in one patient: peripheral edema, localized edema, fluid overload)","DB phase, macitentan group",3 SAEs
same,Patients who discontinued treatment due to AEs,"DB phase, macitentan group",4 patients
same,Patients who had SAEs,"DB phase, macitentan group",20.9%
same,Patients with hepatic disorder SAEs,"DB phase, macitentan group",3 patients
same,Patients with anemia AEs,[2],14.0%
same,Patients with hepatic disorder AEs,[2],14.0%
same,Patients with edema and fluid retention AEs,"DB phase, macitentan group (13 patients)",30.2%
same,Peripheral edema considered related to study treatment,"DB phase, macitentan group, 4 patients",9.3%
same,Headache considered related to study treatment,[3],16.3%
same,Patients with severe AEs,[3],16.3%
same,Deaths considered related to macitentan treatment by the investigator,OL and OLE,None of the deaths were considered by the investigator to be related
same,Patients who died,OL phase,4 patients
same,"Reason for death, Hepatocellular Carcinoma",[4],1 (1.2) n (%)
same,"Reason for death, Pneumonia",[4],1 (1.2) n (%)
same,"Reason for death, Pulmonary Arterial Hypertension",[4],1 (1.2) n (%)
same,"Reason for death, Subdural Haematoma",[4],1 (1.2) n (%)
same,Total deaths,[4],4 (4.8) n (%)
same,Macitentan-treated patients who died,across OL phase (and after end of its follow-up) and ongoing OLE phase,7 patients
same,"AE leading to premature discontinuation of study treatment, Alveolitis",[5],1 (1.2) n(%)
same,"AE leading to premature discontinuation of study treatment, Anaemia",[5],2 (2.4) n(%)
same,"AE leading to premature discontinuation of study treatment, Ascites",[5],1 (1.2) n(%)
same,"AE leading to premature discontinuation of study treatment, Diarrhoea",[5],1 (1.2) n(%)
same,"AE leading to premature discontinuation of study treatment, Hypersensitivity",[5],1 (1.2) n(%)
same,"AE leading to premature discontinuation of study treatment, Liver function test increased",[5],1 (1.2) n(%)
same,"AE leading to premature discontinuation of study treatment, Oedema peripheral",[5],2 (2.4) n(%)
same,"AE leading to premature discontinuation of study treatment, Pneumonia",[5],1 (1.2) n(%)
same,"AE leading to premature discontinuation of study treatment, Pulmonary arterial hypertension",[5],1 (1.2) n(%)
same,"AEs leading to premature discontinuation of study treatment, Subjects with at least one AE",[5],10 (11.9) n(%)
same,"AEs of special interest Anemia, Anaemia postoperative",[5],1 (1.2) n (%)
same,"AEs of special interest Anemia, Haematocrit decreased",[5],1 (1.2) n (%)
same,"AEs of special interest Anemia, Subjects with atleast one AE",[5],22 (26.2) n (%)
same,"AEs of special interest Edema and fluid retention, Fluid overload",[5],1 (1.2) n (%)
same,"AEs of special interest Edema and fluid retention, Fluid retention",[5],1 (1.2) n (%)
same,"AEs of special interest Edema and fluid retention, Generalised oedema",[5],1 (1.2) n (%)
same,"AEs of special interest Edema and fluid retention, Joint swelling",[5],1 (1.2) n (%)
same,"AEs of special interest Edema and fluid retention, Localised oedema",[5],1 (1.2) n (%)
same,"AEs of special interest Edema and fluid retention, Peripheral swelling",[5],2 (2.4) n (%)
same,"AEs of special interest Edema and fluid retention, Subjects with atleast one AE",[5],26 (31.0) n (%)
same,"AEs of special interest Edema and fluid retention, Swelling",[5],1 (1.2) n (%)
same,"AEs of special interest Hepatic disorders, Ammonia increased",[5],2 (2.4) n (%)
